Results: patent US11325921B2, “Optically active crosslinked cyclic secondary amine derivative” (Sumitomo Dainippon Pharma Co., Ltd., priority 2018, dated 2022)

What was measured:
MOLM-13 cells = experiment: Test 2: inhibition of cell proliferation, MOLM-13; type: cell-based; settings: Homo sapiens, 168 h, cultured 7 days, PrestoBlue
Experimental: (§1) RS4; 11 cells were obtained from American Type Culture Collection (ATCC). The cells were cultured at 37° C. in the presence of 5% CO2 in RPMI 1640 medium containing 10% fetal bovine serum and 1% penicillin/streptomycin. MOLM-13 cells were separately obtained from DSMZ. The cells were cultured at 37° C. in the presence of 5% CO2 in RPMI 1640 medium containing 20% fetal bovine serum and 1% penicillin/streptomycin.
(§2) The cells were plated to a 96-well plate in 2000 cells/well, each test compound was added thereto to adjust the final concentration of DMSO to 0.1% of DMSO, and the cells were cultured for 7 days. After the cultivation, the cell viability was calculated with PrestoBlue™ Cell Viability Reagent (Invitrogen, A13261). The IC50 value was calculated from a survival curve, that corresponds to the concentration of the test compound at which the cell proliferation inhibition rate is 50%.

RS4; 11 cells = experiment: Test 2: inhibition of cell proliferation, RS4; 11; type: cell-based; settings: for IC50: Homo sapiens, 168 h, 11 cells, cultured 7 days, PrestoBlue; for cell proliferation inhibition activity (in words, good) / cell proliferation inhibitory activity (in words, potent): 11 and MOLM-13 cells, summary of the table; for cell proliferation inhibitory activity (in words, potent): 'especially'
Experimental: as §1, §2

[1] = biological target: Menin-MLL binding (His-Menin1-615 / MLL1-172-FLAG) (Homo sapiens (Human), UniProt O00255); experiment: Test 1: inhibition of the Menin-MLL binding (HTRF); settings: for Menin-MLL binding inhibition activity (in words): summary of the table
Menin-MLL binding (His-Menin1-615 / MLL1-172-FLAG), sequence (O00255 other isoform, or with tags, fused parts or gaps): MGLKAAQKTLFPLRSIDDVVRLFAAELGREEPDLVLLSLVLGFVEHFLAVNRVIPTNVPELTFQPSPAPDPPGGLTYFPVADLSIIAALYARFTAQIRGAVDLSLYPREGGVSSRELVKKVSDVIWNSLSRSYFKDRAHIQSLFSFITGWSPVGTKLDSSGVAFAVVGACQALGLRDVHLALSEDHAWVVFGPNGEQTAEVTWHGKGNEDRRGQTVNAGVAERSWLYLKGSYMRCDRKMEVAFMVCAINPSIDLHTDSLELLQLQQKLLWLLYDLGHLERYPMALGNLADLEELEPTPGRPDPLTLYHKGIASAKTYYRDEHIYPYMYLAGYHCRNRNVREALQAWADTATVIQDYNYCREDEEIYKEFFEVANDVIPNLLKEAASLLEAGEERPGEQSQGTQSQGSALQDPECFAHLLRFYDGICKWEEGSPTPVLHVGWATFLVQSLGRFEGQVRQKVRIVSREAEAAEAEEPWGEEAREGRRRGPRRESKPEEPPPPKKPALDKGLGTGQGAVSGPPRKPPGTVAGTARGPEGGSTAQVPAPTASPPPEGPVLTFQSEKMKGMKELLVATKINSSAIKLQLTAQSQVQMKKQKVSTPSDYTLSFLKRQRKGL
Experimental: Menin1-615 wherein 6× His tag and HA tag are inserted in the N-terminus, and myc tag is inserted in the C-terminus (hereinafter, referred to as His-Menin1-615), was diluted with an assay buffer (25 mmol/L HEPES, 150 mmol/L NaCl, 1 mmol/L dithiothreitol, 0.5% (w/v) Tween 80, 0.3% (w/v) BSA, 0.3% (w/v) skim milk) to adjust the final concentration Lo 30 nmol/L. The test compounds were also diluted with the assay buffer to adjust each concentration of the test compounds to 0.005 to 5 μmol/L. The prepared His-Menin1-615 and test compounds were added to a light-shielding 384-well low-volume plate (Corning, #4514) in 2 μL/well and 6 μL/well, respectively, and the plate was covered with a lid for light-shielding (Corning, r-3935), and incubated at room temperature for 3 hours. After the incubation, MLL1-172 wherein FLAG tag is inserted in the C-terminus (MLL1-172-FLAG), was separately diluted with the assay buffer to adjust the final concentration to 50 nmol/L. The prepared MLL1-172-FLAG was added to the above plate in 2 μL/well, and the plate was covered with a lid for light-shielding and incubated at room temperature for an hour.
Then, anti-6HIS-d2 antibody (cisbio, 61HISDLA) and anti-FLAGM2-K antibody (cisbio, 61FG2KLA) were diluted with an antibody dilution buffer (50 mmol/L Tris, 150 mmol/L NaCl, 800 mmol/L KF, pH 7.4) to adjust the final concentration to 1.4 μg/mL to prepare an antibody mixture. The prepared antibody mixture was added to the above plate in 10 μL/well, and the plate was covered with a lid and incubated at 4° C. for 17 to 24 hours. After the incubation, the signal was detected with RUBYstar (BMG LABTECH). The binding inhibition rate (%) at each concentration of the test compounds was calculated from the following formula, and the IC50 value was obtained, that corresponds to the concentration of the test compound at which the binding inhibition rate is 50%.

[2] = tested on: MEIS1 mRNA in MV4; 11 cells; experiment: Test 3: inhibition of mRNA transcription, MEIS1; type: cell-based; settings: for mrna remaining at 1 µM: Homo sapiens, MV4, 20 to 24 hours, fitted with GAPDH, read-out: mRNA at 1 μM (% control) MEIS1; for mRNA transcription inhibition activity (in words): MEIS1 and HOXA9, MV4, 1 μM, summary of the table
Experimental: (§3) MV4; 11 cells were obtained from American Type Culture Collection (ATCC). The cells were cultured at 37° C. in the presence of 5% CO2 in RPMI 1640 medium containing 10% fetal bovine serum and 1% penicillin/streptomycin. To the MV4; 11 cells was added each test compound to adjust the final concentration to 1 μmol/L, and the cells were cultured at 37° C. in the presence of 5% CO2 for 20 to 24 hours. After the incubation, the total RNA was extracted from the cells with RNeasy™ Mini Kit (QIAGEN, 74106), and cDNA was synthesized with Superscript™ VILO™ cDNA Synthesis Kit (Invitrogen, #11754250). By using TaqMan™ Gene Expression Master Mix (Applied Biosystems, 4369016) and TaqMan™ probe (Applied Biosystems), the expression level of mRNA was quantified from the obtained cDNA with 7900HT (Applied biosystems). The mRNA expression level of each obtained gene was fitted with the expression level of mRNA of GAPDH.

[3] = tested on: HOXA9 mRNA in MV4; 11 cells; experiment: Test 3: inhibition of mRNA transcription, HOXA9; type: cell-based; settings: Homo sapiens, 20 to 24 hours, fitted with GAPDH, read-out: mRNA at 1 μM (% control) HOXA9
Experimental: as §3

Structure (SMILES)	IC50 (MOLM-13 cells) [nM]	IC50 (RS4; 11 cells) [nM]	IC50 [1] [nM]	mrna remaining at 1 µM [2] [%]	mrna remaining at 1 µM [3] [%]	mRNA transcription inhibition activity (in words) [2]	cell proliferation inhibition activity (in words, good) (RS4; 11 cells)	cell proliferation inhibitory activity (in words, potent) (RS4; 11 cells)	Menin-MLL binding inhibition activity (in words) [1]
N#Cc1cnc2sc(CC(F)(F)F)cc2c1N1CC2(CN(C(=O)[C@H]3N[C@H]4CC[C@@H]3C(=O)C4)C2)C1 [Example 25, 4-{6-[(1S,3S,4S)-5-oxo-2-azabicyclo[2.2.2]octane-3-carbonyl]-2,6-diazaspiro[3.3]heptan-2-yl}-2-(2,2,2-trifluoroethyl)thieno[2,3-b]pyridine-5-carbonitrile]	2200	690	90.2						
C=CCO[C@H]1C[C@H]2CC[C@@H]1N[C@@H]2C(=O)N1CC2(C1)CN(c1c(C(F)(F)F)cnc3sc(CC(F)(F)F)cc13)C2 [Example 11, {(1S,3S,4R,6S)-6-[(prop-2-en-1-yl)oxy]-2-azabicyclo[2.2.2]octan-3-yl}{6-[2-(2,2,2-trifluoroethyl)-5-(trifluoromethyl)thieno[2,3-b]pyridin-4-yl]-2,6-diazaspiro[3.3]heptan-2-yl}methanone]	730	630	53.9	60.7	64.5				
N#Cc1cnc2sc(CC(F)(F)F)cc2c1N1CC2(CN(C(=O)[C@H]3NC4CCC3CC4)C2)C1 [Example 20, 4-{6-[(3S)-2-azabicyclo[2.2.2]octane-3-carbonyl]-2,6-diazaspiro[3.3]heptan-2-yl}-2-(2,2,2-trifluoroethyl)thieno[2,3-b]pyridine-5-carbonitrile]	220	270	11.4	41.8	59.3	showed the mRNA transcription inhibition activity	good	potent	potent
O=C([C@H]1N[C@@H]2CC[C@H]1C2)N1CC2(C1)CN(c1c(C(F)F)cnc3sc(CC(F)(F)F)cc13)C2 [Example 27, [(1R,3S,4S)-2-azabicyclo[2.2.1]heptan-3-yl]{6-[5-(difluoromethyl)-2-(2,2,2-trifluoroethyl)thieno[2,3-b]pyridin-4-yl]-2,6-diazaspiro[3.3]heptan-2-yl}methanone]	940	560	26	48.9	53.5	showed the mRNA transcription inhibition activity	good		potent
N#Cc1cnc2sc(CC(F)(F)F)cc2c1N1CC2(CN(C(=O)[C@H]3N[C@@H]4CC[C@H]3C4)C2)C1 [Example 21, 4-{6-[(1R,3S,4S)-2-azabicyclo[2.2.1]heptane-3-carbonyl]-2,6-diazaspiro[3.3]heptan-2-yl}-2-(2,2,2-trifluoroethyl)thieno[2,3-b]pyridine-5-carbonitrile]	240	270	8.4	40.9	52.1	showed the mRNA transcription inhibition activity	good	potent	potent
O=C([C@H]1N[C@H]2CC[C@@H]1C[C@H]2F)N1CC2(C1)CN(c1c(C(F)(F)F)cnc3sc(CC(F)(F)F)cc13)C2 [Example 10, [(1S,3S,4R,6R)-6-fluoro-2-azabicyclo[2.2.2]octan-3-yl]{6-[2-(2,2,2-trifluoroethyl)-5-(trifluoromethyl)thieno[2,3-b]pyridin-4-yl]-2,6-diazaspiro[3.3]heptan-2-yl}methanone]	2100	810	343	68.8	69.5				
O=C([C@H]1N[C@H]2CC[C@@H]1C[C@@H]2O)N1CC2(C1)CN(c1c(C(F)(F)F)cnc3sc(CC(F)(F)F)cc13)C2 [Example 6, [(1S,3S,4R,6S)-6-hydroxy-2-azabicyclo[2.2.2]octan-3-yl]{6-[2-(2,2,2-trifluoroethyl)-5-(trifluoromethyl)thieno[2,3-b]pyridin-4-yl]-2,6-diazaspiro[3.3]heptan-2-yl}methanone]	830	580	27.3	51.3	54.3				
O=C([C@H]1NC2CCC1CC2)N1CC2(C1)CN(c1c(C(F)F)cnc3sc(CC(F)(F)F)cc13)C2 [Example 26, [(3S)-2-azabicyclo[2.2.2]octan-3-yl]{6-[5-(difluoromethyl)-2-(2,2,2-trifluoroethyl)thieno[2,3-b]pyridin-4-yl]-2,6-diazaspiro[3.3]heptan-2-yl}methanone]	680	290	44.7	41.4	57.6	showed the mRNA transcription inhibition activity	good		potent
O=C([C@H]1N[C@H]2CC[C@@H]1C[C@@H]2OCc1ccccc1)N1CC2(C1)CN(c1c(C(F)(F)F)cnc3sc(CC(F)(F)F)cc13)C2 [Example 13, [(1S,3S,4R,6S)-6-(benzyloxy)-2-azabicyclo[2.2.2]octan-3-yl]{6-[2-(2,2,2-trifluoroethyl)-5-(trifluoromethyl)thieno[2,3-b]pyridin-4-yl]-2,6-diazaspiro[3.3]heptan-2-yl}methanone]	810	620	134	57.3	63				
O=C1C[C@@H]2CC[C@H]1[C@@H](C(=O)N1CC3(C1)CN(c1c(C(F)(F)F)cnc4sc(CC(F)(F)F)cc14)C3)N2 [Example 8, (1S,3S,4S)-3-{6-[2-(2,2,2-trifluoroethyl)-5-(trifluoromethyl)thieno[2,3-b]pyridin-4-yl]-2,6-diazaspiro[3.3]heptane-2-carbonyl}-2-azabicyclo[2.2.2]octan-5-one]	1100	330	635	82.9	79.3				
O=C([C@H]1N[C@H]2CC[C@@H]1C(F)(F)C2)N1CC2(C1)CN(c1c(C(F)(F)F)cnc3sc(CC(F)(F)F)cc13)C2 [Example 4, [(1S,3S,4S)-5,5-difluoro-2-azabicyclo[2.2.2]octan-3-yl]{6-[2-(2,2,2-trifluoroethyl)-5-(trifluoromethyl)thieno[2,3-b]pyridin-4-yl]-2,6-diazaspiro[3.3]heptan-2-yl}methanone]	1700	780	140	65.4	60				
